Data taken from US20180000085A1, “USE OF PICOLINAMIDE COMPOUNDS WITH FUNGICIDAL ACTIVITY” (DOW AGROSCIENCES LLC, priority 2014, published 2018).

Tests used:
Type in all cases: in vivo
Phakopsora pachyrhizi = assay: Asian soybean rust (PHAKPA) disease control; set-up: key: A: > 80; B: ≤ 80; C: Not Tested; D: No Activity Observed in the Reported Assay; details: 25 ppm; for PHAKPA disease control, 1DP: 1 Day Protectant; for PHAKPA disease control, 3DC: 3 Day Curative
Zymoseptoria tritici = assay: Leaf blotch of wheat (SEPTTR) disease control on wheat seedlings; details: for SEPTTR 1DP, LV activity at 125.1 g/H (% Control rating) / SEPTTR 3DC, LV activity at 125.1 g/H (% Control rating): low volume application
Alternaria solani = assay: Tomato early blight (ALTESO) disease control; set-up: key: A: > 80; B: ≤ 80; C: Not Tested; D: No Activity Observed in the Reported Assay; details: 100 ppm, 1 Day Protectant
Protocol: All fungicides were evaluated using the aforementioned method for their activity vs. all target diseases, unless stated otherwise. Wheat leaf blotch and brown rust activity were also evaluated using track spray applications, in which case the fungicides were formulated as EC formulations, containing 0.1% Trycol 5941 in the spray solutions. Wheat plants (variety Yuma) were grown from seed in a greenhouse in 50% mineral soil/50% soil-less Metro mix until the first leaf was fully emerged, with 7-10 seedlings per pot. These plants were inoculated with an aqueous spore suspension of Zymoseptoria tritici either prior to or after fungicide treatments. After inoculation the plants were kept in 100% relative humidity (one day in a dark dew chamber followed by two to three days in a lighted dew chamber at 20° C.) to permit spores to germinate and infect the leaf. The plants were then transferred to a greenhouse set at 20° C. for disease to develop. When disease symptoms were fully expressed on the 1st leaves of untreated plants, infection levels were assessed on a scale of 0 to 100 percent disease severity. Percent disease control was calculated using the ratio of disease severity on treated plants relative to untreated plants. Example J: Evaluation of Fungicidal Activity: Tomato Early Blight (Alternaria solani; Bayer Code […]) Tomato plants (variety Outdoor Girl) were propagated in soil-less Metro mix, with each pot having one plant, and used when 12 to 14 days old. Test plants were inoculated with an aqueous spore suspension of Alternaria solani 24 hr after fungicide treatments. After inoculation the plants were kept in a dew room at 22° C. with 100% relative humidity for 48 h to permit spores to germinate and infect the leaf. The plants were then transferred to a growth room at 22° C. for disease to develop. Fungicide formulation, application and disease assessment on the sprayed leaves followed the procedures as described in the Example A.

Cercospora beticola = assay: Leaf spot of sugar beets (CERCBE) disease control; details: 100 ppm; 1 Day Protectant; sugar beet
Protocol: All fungicides were evaluated using the aforementioned method for their activity vs. all target diseases, unless stated otherwise. Wheat leaf blotch and brown rust activity were also evaluated using track spray applications, in which case the fungicides were formulated as EC formulations, containing 0.1% Trycol 5941 in the spray solutions. Wheat plants (variety Yuma) were grown from seed in a greenhouse in 50% mineral soil/50% soil-less Metro mix until the first leaf was fully emerged, with 7-10 seedlings per pot. These plants were inoculated with an aqueous spore suspension of Zymoseptoria tritici either prior to or after fungicide treatments. After inoculation the plants were kept in 100% relative humidity (one day in a dark dew chamber followed by two to three days in a lighted dew chamber at 20° C.) to permit spores to germinate and infect the leaf. The plants were then transferred to a greenhouse set at 20° C. for disease to develop. When disease symptoms were fully expressed on the 1st leaves of untreated plants, infection levels were assessed on a scale of 0 to 100 percent disease severity. Percent disease control was calculated using the ratio of disease severity on treated plants relative to untreated plants. Example F: Evaluation of Fungicidal Activity: Leaf Spot of Sugar Beets (Cercospora beticola; Bayer Code CERCBE) Sugar beet plants (variety HH88) were grown in soil-less Metro mix and trimmed regularly to maintain a uniform plant size prior to test. Plants were inoculated with a spore suspension 24 hr after fungicide treatments. Inoculated plants were kept in a dew chamber at 22° C. for 48 hr then incubated in a greenhouse set at 24° C. under a clear plastic hood with bottom ventilation until disease symptoms were fully expressed. Fungicide formulation, application and disease assessment on the sprayed leaves followed the procedures as described in the Example A.

Row | Structure (SMILES) | PHAKPA disease control, 1DP (Phakopsora pachyrhizi) | PHAKPA disease control, 3DC (Phakopsora pachyrhizi) | SEPTTR 1DP disease control rating, HV activity (Zymoseptoria tritici; HV application at 100 ppm, 1 Day Protectant, wheat leaf blotch) | SEPTTR 3DC disease control rating, HV activity (Zymoseptoria tritici; HV application at 100 ppm, 3 Day Curative, wheat leaf blotch) | SEPTTR 1DP disease control rating, LV activity (Zymoseptoria tritici; Low volume application at 125.1 g/H, 1 Day Protectant, wheat leaf blotch) | SEPTTR 3DC disease control rating, LV activity (Zymoseptoria tritici; Low volume application at 125.1 g/H, 3 Day Curative, wheat leaf blotch) | ALTESO disease control, 1DP (Alternaria solani) | CERCBE disease control, 1DP (Cercospora beticola) | SEPTTR 1DP, LV activity at 125.1 g/H (% Control rating) (Zymoseptoria tritici; 1 Day Protectant) | SEPTTR 3DC, LV activity at 125.1 g/H (% Control rating) (Zymoseptoria tritici; 3 Day Curative)
1 | CCCOC(CC)C(Oc1ccccc1)C(C)OC(=O)C(C)NC(=O)c1nccc(OC)c1OCOC(C)=O (stereo not drawn) [Cmpd 446] | A (> 80) | B (≤ 80) | A (> 80) | A (> 80) | A (> 80) | A (> 80) | D | B (≤ 80) |  | 
2 | COc1ccnc(C(=O)N[C@@H](C)C(=O)O[C@@H](C)[C@H](Oc2ccccc2)C(C)C)c1OCOC(C)=O [Cmpd 475] | A (> 80) | A (> 80) |  |  |  |  | B (≤ 80) | A (> 80) | A (> 80) | A (> 80)
3 | CC[C@@H](CCOC)[C@@H](Oc1ccccc1)[C@H](C)OC(=O)[C@H](C)NC(=O)c1nccc(OC)c1OCOC(C)=O [Cmpd 476] | A (> 80) | B (≤ 80) |  |  |  |  | B (≤ 80) | B (≤ 80) | A (> 80) | A (> 80)
4 | CCC(CC)[C@@H](Oc1ccccc1)[C@H](C)OC(=O)[C@H](C)NC(=O)c1nccc(OC)c1OCOC(C)=O [Cmpd 477] | A (> 80) | B (≤ 80) |  |  |  |  | B (≤ 80) | A (> 80) | A (> 80) | A (> 80)
5 | COc1ccnc(C(=O)N[C@@H](C)C(=O)O[C@@H](C)[C@H](Oc2ccccc2)C(C)C)c1OC(C)=O [Cmpd 478] | A (> 80) | B (≤ 80) |  |  |  |  | B (≤ 80) | B (≤ 80) | A (> 80) | A (> 80)
6 | CCC(CC)[C@@H](Oc1ccccc1)[C@H](C)OC(=O)[C@H](C)NC(=O)c1nccc(OC)c1OC(C)=O [Cmpd 479] | A (> 80) | B (≤ 80) |  |  |  |  | B (≤ 80) | A (> 80) | A (> 80) | A (> 80)
7 | CC[C@@H](CCOC)[C@@H](Oc1ccccc1)[C@H](C)OC(=O)[C@H](C)NC(=O)c1nccc(OC)c1OC(C)=O [Cmpd 482] |  |  |  |  |  |  | B (≤ 80) | A (> 80) | A (> 80) | A (> 80)
8 | COc1ccnc(C(=O)N[C@@H](C)C(=O)O[C@@H](C)[C@H](Oc2ccccc2)c2ccccc2)c1OCOC(C)=O [Cmpd 500] | B (≤ 80) | B (≤ 80) |  |  |  |  | B (≤ 80) | A (> 80) | A (> 80) | A (> 80)
9 | COc1ccnc(C(=O)N[C@@H](C)C(=O)O[C@H](C)[C@@H](Oc2ccccc2)c2ccccc2)c1OCOC(C)=O [Cmpd 547] | B (≤ 80) | D |  |  |  |  | B (≤ 80) | B (≤ 80) | A (> 80) | A (> 80)
10 | COc1ccnc(C(=O)N[C@H](C)C(=O)O[C@H](C)[C@@H](Oc2ccccc2)C(C)C)c1OCOC(C)=O [Cmpd 548] | B (≤ 80) | D |  |  |  |  | B (≤ 80) | B (≤ 80) | B (≤ 80) | B (≤ 80)
11 | COc1ccnc(C(=O)N[C@H](C)C(=O)O[C@H](C)[C@@H](Oc2ccccc2)c2ccccc2)c1OCOC(C)=O [Cmpd 549] | D | D |  |  |  |  | B (≤ 80) | B (≤ 80) | B (≤ 80) | B (≤ 80)
12 | COc1ccnc(C(=O)N[C@@H](C)C(=O)O[C@@H](C)[C@@H](Oc2ccccc2)C(C)C)c1OCOC(C)=O [Cmpd 552] | A (> 80) | B (≤ 80) |  |  |  |  | B (≤ 80) | B (≤ 80) | A (> 80) | A (> 80)
13 | COc1ccnc(C(=O)N[C@@H](C)C(=O)O[C@@H](C)[C@H](Oc2ccccc2)C2CCCC2)c1OCOC(C)=O [Cmpd 556] | A (> 80) | B (≤ 80) |  |  |  |  | B (≤ 80) | A (> 80) | A (> 80) | A (> 80)
14 | COc1ccnc(C(=O)N[C@@H](C)C(=O)O[C@@H](C)[C@@H](CC(C)C)Oc2ccccc2)c1OCOC(C)=O [Cmpd 557] | A (> 80) | B (≤ 80) |  |  |  |  | B (≤ 80) | B (≤ 80) | A (> 80) | A (> 80)
15 | COc1ccnc(C(=O)N[C@H](C)C(=O)O[C@@H](C)[C@H](Oc2ccccc2)C(C)C)c1OCOC(C)=O [Cmpd 558] | B (≤ 80) | D |  |  |  |  | B (≤ 80) | B (≤ 80) | B (≤ 80) | B (≤ 80)
16 | COc1ccnc(C(=O)N[C@H](C)C(=O)O[C@@H](C)[C@@H](Oc2ccccc2)C(C)C)c1OCOC(C)=O [Cmpd 559] | B (≤ 80) | B (≤ 80) |  |  |  |  | B (≤ 80) | B (≤ 80) | B (≤ 80) | A (> 80)
